Experimental findings from patent publication US20200046860A1, “Systems and Methods for the Detection of Hydroxychloroquine-Mediated Cardiotoxicity” (Mayo Foundation for Medical Education and Research, priority 2018, published 2020) are described below.

One series deals with cardiac myocytes. Nature of the series: Endomyocardial biopsy of patient on hydroxychloroquine. Type of series: in vivo, human. The following applies: same patient. The procedure:
An endomyocardial biopsy was performed on the same subject. […] Amyloid was not present on special stains, including sulfated Alcian blue stain and Congo red stains (C of FIG. 4 and D of FIG. 4, respectively, ×100 original magnification).

From the text for heart: Planar scintigraphy (D of FIG. 3) of ^99mTc-PYP uptake allows count comparison between the heart (right) with the contralateral chest (left) on 3-hour uptake anterior planar imaging.

With `CCN(CCO)CCCC(C)Nc1ccnc2cc(Cl)ccc12` (stereo not drawn) [hydroxychloroquine], in the series on heart (human, in vivo), the “left ventricular wall finding on echocardiogram” value is listed as “concentric left ventricular wall thickening”. For the same molecule, the “global averaged longitudinal peak systolic strain” value in the series on heart (patient on hydroxychloroquine for 15 years, abnormal, most preserved at the apex) is listed as −10%. Moreover, the “hematoxylin and eosin-stained section finding” value in the series with cardiac myocytes (light microscopy) is “marked sarcoplasmic vacuolization of cardiac myocytes”. Moreover, the “toluidine blue-stained thick section finding” value with cardiac myocytes is “dense sarcoplasmic inclusions”. Moreover, in the series with cardiac myocytes (in keeping with hydroxychloroquine-mediated cardiotoxicity), the electron microscopy finding result was “presence of myelinoid and curvilinear bodies”. The “amyloid on special stains” value with cardiac myocytes (sulfated Alcian blue and Congo red stains) is given as “not present”.
